{"source": "patent US20240122938A1", "about": "“METHODS AND COMPOSITIONS FOR TREATING UVEAL MELANOMA” (INSERM (INSTITUT NATIONAL DE LA SANTÉ ET DE LA RECHERCHE …, priority 2019, published 2024)", "key": {"[1]": {"system": "Mel270 cells", "test": "Cell death / alive cells by Annexin V/DAPI FACS", "type": "cell-based, human", "settings": "GSK2606414 5 μM, 48 h", "protocol": "FIG. 5: PERK dampens ABT-263 killing activity. (A) Q-PCR analysis of PERK level in Mel270 uveal melanoma cells treated with control (siCtl) or PERK (siPERK) siRNA for 48 hr. (B) Mel270 cells were treated with control (siCtl) or PERK (siPERK) siRNA for 48 hrs before being exposed to ABT-263 3 μM for 48 hr. FACS analyses of Annexin V/DAPI double staining in […] indicate alive (white) or dead (early, late apoptosis and necrosis in light grey) cells. (C) Mel270 cells were treated with ABT-263 5 μM or GSK2606414 5 μM alone or in combination for 48 h.\n(§1) Cells were seeded at a density of 100 000 cells/well, in 6-well plate and treated with ABT-263 for indicated time. Cells were harvested using accutase enzyme, washed twice with ice-cold phosphate-buffered saline, resuspended in a buffer (Hepes 250 mM, NaCl 150 mM, KCl 5 mM, MgCl2 2 mM, CaCl2) 2 mM) with DAPI (1 μg/ml) and Annexin V-Alexa Fluor 647 conjugate (1/100) and incubated for 15 minutes at room temperature (25° C.) in the dark. Samples were immediately analyzed by a flow cytometer (MACS QUANT) using a laser at 405 nm excitation with a bandpass filter at 425 nm and 475 nm for DAPI detection and a laser at 635 nm excitation with a bandpass filter at 650 nm and 665 nm for Alexa Fluor 647 dye. Annexin and DAPI mono- or double positive cells were counted as dead cells."}, "[2]": {"system": "92.1 cells", "test": "Cell death / apoptosis", "type": "cell-based, human", "settings": "data not shown", "protocol": "as §1"}, "[3]": {"system": "ER stress molecules in Mel270 cells", "test": "Western blot of ER stress molecules", "type": "cell-based, human", "protocol": "Western blot of ER stress molecules in Mel270 cells treated with ABT-263 5 μM in the absence or presence of QVD-OPh 20 μM. Representative western blot are shown.\n(§2) Western blotting was performed as previously described 25,26. Briefly, cell lysates (30 μg) were separated using SDS-PAGE, transferred onto a PVDF membrane and subsequently exposed to the appropriate antibodies, anti-BCL2 (ms-123-PO) was from neomarker, anti-caspase 3 (#610323) was from BD, anti-BAX (#8429) was from sigma, anti-PARP (#9542), anti-BCL-XL (#2762), anti-caspase 9 (#9502) and anti-PUMA (#4976) were from Cell Signaling Technology Inc, anti-MCL1 (#sc-819), anti-NOXA (#56169), and anti-HSP90 (#sc-13119) were from Santa Cruz biotechnology. The proteins were visualized using the ECL system (Amersham)."}, "[4]": {"system": "OMM1 cells", "test": "Cell proliferation assay", "type": "cell-based, human", "protocol": "(§3) Human uveal melanoma cell lines and short-term cultures derived from different patients with metastatic malignant melanoma cells were grown in DMEM supplemented with 7% FBS at 37° C. in a humidified atmosphere containing 5% CO2. Lipofectamine™ RNAiMAX and opti-MEM medium were purchased from Invitrogen (San Diego, CA, USA). ABT-263 was obtained from Euromedex and qVD from Clinisciences."}, "[5]": {"system": "ER stress molecules in metastatic human uveal melanoma cells", "test": "Western blot of ER stress molecules", "type": "cell-based", "settings": "OMM1", "protocol": "as §2, with “(Amersham). The western blots shown are representative of at least 3 independent experiments.” for “(Amersham).”"}, "[6]": {"system": "OMM2,5 metastatic melanoma cells", "test": "Cell proliferation assay", "type": "cell-based, human", "protocol": "as §3"}, "[7]": {"system": "primary melanoma cells", "test": "Cell proliferation assay", "type": "cell-based, human", "settings": "data not shown", "protocol": "as §3"}, "[8]": {"system": "Mel270 uveal melanoma cells", "test": "Mitochondrial membrane potential by TMRE staining", "type": "cell-based, human", "settings": "Mel270 cells", "protocol": "(§4) FIG. 1. ABT-263 induces apoptosis of uveal melanoma cells. Detection of the mitochondrial membrane potential using TMRE staining in Mel270 and OMM1 uveal melanoma cells exposed to ABT-263 3 μM or 5 μM for 48 h in the absence or presence of QVD-OPh 20 μM."}, "[9]": {"system": "OMM1 uveal melanoma cells", "test": "Mitochondrial membrane potential by TMRE staining", "type": "cell-based, human", "settings": "OMM1 cells", "protocol": "as §4"}, "[10]": {"system": "PARP, caspase 9 and caspase 3 in primary and metastatic uveal melanoma cells", "test": "Western blot of PARP and caspases", "type": "cell-based, human", "settings": "pretreatment with pan caspase inhibitor"}, "[11]": {"system": "panel of human uveal melanoma cell lines", "test": "Cell death by Annexin V/DAPI staining with qVD", "type": "cell-based", "settings": "all cell lines", "protocol": "as §1"}}, "data": [{"compound": "Cn1cc(-c2ccc3c(c2)CCN3C(=O)Cc2cccc(C(F)(F)F)c2)c2c(N)ncnc21", "note": "[GSK2606414]", "values": [{"measurement": "viable cells, alone", "setting": "[1]", "value": "no effect"}, {"measurement": "sensitivity of 92.1 cells to ABT-263 with GSK2606414", "setting": "[2]", "value": "resensitized"}, {"measurement": "CHOP and ATF4 accumulation", "setting": "[3]; cell line not stated, data not shown", "value": "inhibited CHOP and ATF4 accumulation"}]}, {"compound": "CC1(C)CCC(CN2CCN(c3ccc(C(=O)NS(=O)(=O)c4ccc(NCC5CCOCC5)c([N+](=O)[O-])c4)c(Oc4cnc5[nH]ccc5c4)c3)CC2)=C(c2ccc(Cl)cc2)C1", "note": "[ABT-199]", "values": [{"measurement": "proliferation inhibition", "setting": "[4]; OMM1 cells, data not shown", "value": 15, "unit": "%"}]}, {"compound": "tunicamycin", "values": [{"measurement": "CHOP stimulation", "setting": "[5]", "value": "able to stimulate CHOP"}]}, {"compound": "CN(C)CC[C@H](CSc1ccccc1)Nc1ccc(S(=O)(=O)NC(=O)c2ccc(N3CCN(Cc4ccccc4-c4ccc(Cl)cc4)CC3)cc2)cc1[N+](=O)[O-]", "note": "[ABT-737]", "values": [{"measurement": "proliferation", "setting": "[4]; OMM1 metastatic melanoma cells", "value": "strongly reduced proliferation"}, {"measurement": "proliferation", "setting": "[6]", "value": "strongly reduced proliferation"}, {"measurement": "proliferation, response of primary melanoma cells", "setting": "[7]", "value": "highly resistant"}]}, {"compound": "CC(C)[C@H](NC(=O)c1ccc2ccccc2n1)C(=O)N[C@@H](CC(=O)O)C(=O)COc1c(F)cccc1F", "note": "[qVD]", "values": [{"measurement": "effect of qVD on mitochondrial membrane depolarization after ABT-263", "setting": "[8]", "value": "did not prevent it"}, {"measurement": "effect of qVD on mitochondrial membrane depolarization after ABT-263", "setting": "[9]", "value": "prevented mitochondrial membrane depolarization"}, {"measurement": "PARP and caspase cleavage under ABT-263 after QVD pretreatment", "setting": "[10]", "value": "prevented PARP and caspase cleavage"}, {"measurement": "effect of qVD on ABT-263 mediated change in ER molecules", "setting": "[3]; Mel270, QVD-OPh 20 μM", "value": "did not impact"}, {"measurement": "effect of qVD on ABT-263 cytotoxicity", "setting": "[11]", "value": "protective effect"}]}]}
